Data: patent US11981658B2, “Substituted aminopyridine compounds as EGFR inhibitors” (YUHAN CORPORATION, priority 2021, dated 2024)
Like-named read-outs stand apart in the source and are kept apart here.

Columns and labels:
EGFR Del19/T790M/C797S = EGFR Del19/T790M/C797S (Homo sapiens, UniProt P00533, C797S/DEL746-750/T790M); test: Biochemical EGFR kinase inhibition assay (Lance Ultra TR-FRET), triple mutant del19/T790M/C797S
How it was run: (§1)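 Kinase activity is measured by TR-FRET phosphopeptide detection. Compounds span 0.003 μM to 10 μM; the 1 h reaction at room temperature is quenched with EDTA, then labelled antibody (2 nM) is incubated 60 min before reading.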

EGFR L858R/C797S = EGFR L858R/C797S (Homo sapiens, UniProt P00533, C797S/L858R); test: Biochemical EGFR kinase inhibition assay (Lance Ultra TR-FRET), double mutant L858R/C797S
EGFR L858R/C797S, sequence (P00533 25-1210 C797S/L858R): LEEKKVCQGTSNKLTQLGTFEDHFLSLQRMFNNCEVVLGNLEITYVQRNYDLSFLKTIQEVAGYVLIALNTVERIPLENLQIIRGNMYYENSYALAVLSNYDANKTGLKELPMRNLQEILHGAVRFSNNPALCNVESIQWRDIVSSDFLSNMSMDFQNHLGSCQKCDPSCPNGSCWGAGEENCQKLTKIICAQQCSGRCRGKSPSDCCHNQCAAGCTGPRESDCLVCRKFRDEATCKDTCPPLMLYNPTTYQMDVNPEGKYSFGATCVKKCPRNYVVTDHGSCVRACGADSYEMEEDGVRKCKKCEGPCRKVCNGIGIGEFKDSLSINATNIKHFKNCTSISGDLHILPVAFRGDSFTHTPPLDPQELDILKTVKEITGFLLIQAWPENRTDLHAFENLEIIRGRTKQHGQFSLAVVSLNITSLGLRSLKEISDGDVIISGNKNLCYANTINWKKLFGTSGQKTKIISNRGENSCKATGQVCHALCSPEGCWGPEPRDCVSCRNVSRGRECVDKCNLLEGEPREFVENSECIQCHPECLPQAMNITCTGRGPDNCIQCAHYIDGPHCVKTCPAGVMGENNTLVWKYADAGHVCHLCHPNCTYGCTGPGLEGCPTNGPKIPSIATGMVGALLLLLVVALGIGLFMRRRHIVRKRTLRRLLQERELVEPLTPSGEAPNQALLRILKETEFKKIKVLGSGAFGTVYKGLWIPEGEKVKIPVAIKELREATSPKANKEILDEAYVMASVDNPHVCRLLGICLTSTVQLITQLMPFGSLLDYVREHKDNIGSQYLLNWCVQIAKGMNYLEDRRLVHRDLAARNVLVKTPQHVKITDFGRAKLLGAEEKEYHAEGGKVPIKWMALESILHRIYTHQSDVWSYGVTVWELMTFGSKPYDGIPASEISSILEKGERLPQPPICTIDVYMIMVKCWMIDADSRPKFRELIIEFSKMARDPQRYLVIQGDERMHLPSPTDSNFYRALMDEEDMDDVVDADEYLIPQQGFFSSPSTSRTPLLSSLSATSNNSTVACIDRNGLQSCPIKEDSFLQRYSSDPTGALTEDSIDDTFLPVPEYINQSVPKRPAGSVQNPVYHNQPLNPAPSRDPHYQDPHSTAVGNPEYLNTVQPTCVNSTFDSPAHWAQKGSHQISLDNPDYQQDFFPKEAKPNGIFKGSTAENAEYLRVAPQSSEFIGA
How it was run: as §1

EGFR L858R/T790M/C797S = EGFR L858R/T790M/C797S (Homo sapiens, UniProt P00533, C797S/L858R/T790M); test: Biochemical EGFR kinase inhibition assay (Lance Ultra TR-FRET), triple mutant L858R/T790M/C797S
EGFR L858R/T790M/C797S, sequence (P00533 25-1210 T790M/C797S/L858R): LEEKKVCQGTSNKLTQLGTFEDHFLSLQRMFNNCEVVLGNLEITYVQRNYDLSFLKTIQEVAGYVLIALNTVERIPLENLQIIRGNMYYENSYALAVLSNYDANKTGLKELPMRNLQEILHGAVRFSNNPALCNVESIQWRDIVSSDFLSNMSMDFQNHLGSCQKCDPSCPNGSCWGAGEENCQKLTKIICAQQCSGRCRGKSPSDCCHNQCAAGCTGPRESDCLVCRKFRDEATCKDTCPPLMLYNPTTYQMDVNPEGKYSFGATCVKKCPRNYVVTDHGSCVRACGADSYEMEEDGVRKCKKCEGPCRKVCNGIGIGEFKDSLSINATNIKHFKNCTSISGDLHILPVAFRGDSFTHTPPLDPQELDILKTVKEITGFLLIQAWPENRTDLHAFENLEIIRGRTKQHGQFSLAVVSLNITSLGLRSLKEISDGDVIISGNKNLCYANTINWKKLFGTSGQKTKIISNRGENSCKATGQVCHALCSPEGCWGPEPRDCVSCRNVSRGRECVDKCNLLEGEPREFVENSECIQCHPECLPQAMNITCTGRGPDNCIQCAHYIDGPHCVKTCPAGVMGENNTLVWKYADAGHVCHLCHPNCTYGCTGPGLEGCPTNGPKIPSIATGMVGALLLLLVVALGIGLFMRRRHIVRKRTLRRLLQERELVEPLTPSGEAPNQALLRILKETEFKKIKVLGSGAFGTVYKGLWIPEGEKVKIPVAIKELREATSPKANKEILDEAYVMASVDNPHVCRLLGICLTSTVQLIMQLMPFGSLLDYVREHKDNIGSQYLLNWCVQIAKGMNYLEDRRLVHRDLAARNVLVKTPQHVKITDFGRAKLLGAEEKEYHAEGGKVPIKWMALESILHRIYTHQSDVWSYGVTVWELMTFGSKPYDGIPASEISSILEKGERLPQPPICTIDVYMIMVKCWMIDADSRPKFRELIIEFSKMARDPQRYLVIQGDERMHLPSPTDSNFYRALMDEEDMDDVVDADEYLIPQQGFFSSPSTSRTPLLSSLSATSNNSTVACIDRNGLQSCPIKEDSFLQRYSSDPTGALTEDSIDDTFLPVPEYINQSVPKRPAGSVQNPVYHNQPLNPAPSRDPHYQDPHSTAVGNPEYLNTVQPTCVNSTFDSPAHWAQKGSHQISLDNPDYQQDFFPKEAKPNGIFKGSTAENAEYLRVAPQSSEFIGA
How it was run: as §1

EGFR wildtype (WT) = EGFR wildtype (WT) (Homo sapiens, UniProt P00533); test: Biochemical EGFR kinase inhibition assay (Lance Ultra TR-FRET), wildtype
How it was run: as §1

EGFR Del19/C797S = EGFR Del19/C797S (Homo sapiens, UniProt P00533, C797S/DEL746-750); test: Biochemical EGFR kinase inhibition assay (Lance Ultra TR-FRET), double mutant del19/C797S
EGFR Del19/C797S, sequence (P00533 with tags, fused parts or gaps DEL746-750/C797S): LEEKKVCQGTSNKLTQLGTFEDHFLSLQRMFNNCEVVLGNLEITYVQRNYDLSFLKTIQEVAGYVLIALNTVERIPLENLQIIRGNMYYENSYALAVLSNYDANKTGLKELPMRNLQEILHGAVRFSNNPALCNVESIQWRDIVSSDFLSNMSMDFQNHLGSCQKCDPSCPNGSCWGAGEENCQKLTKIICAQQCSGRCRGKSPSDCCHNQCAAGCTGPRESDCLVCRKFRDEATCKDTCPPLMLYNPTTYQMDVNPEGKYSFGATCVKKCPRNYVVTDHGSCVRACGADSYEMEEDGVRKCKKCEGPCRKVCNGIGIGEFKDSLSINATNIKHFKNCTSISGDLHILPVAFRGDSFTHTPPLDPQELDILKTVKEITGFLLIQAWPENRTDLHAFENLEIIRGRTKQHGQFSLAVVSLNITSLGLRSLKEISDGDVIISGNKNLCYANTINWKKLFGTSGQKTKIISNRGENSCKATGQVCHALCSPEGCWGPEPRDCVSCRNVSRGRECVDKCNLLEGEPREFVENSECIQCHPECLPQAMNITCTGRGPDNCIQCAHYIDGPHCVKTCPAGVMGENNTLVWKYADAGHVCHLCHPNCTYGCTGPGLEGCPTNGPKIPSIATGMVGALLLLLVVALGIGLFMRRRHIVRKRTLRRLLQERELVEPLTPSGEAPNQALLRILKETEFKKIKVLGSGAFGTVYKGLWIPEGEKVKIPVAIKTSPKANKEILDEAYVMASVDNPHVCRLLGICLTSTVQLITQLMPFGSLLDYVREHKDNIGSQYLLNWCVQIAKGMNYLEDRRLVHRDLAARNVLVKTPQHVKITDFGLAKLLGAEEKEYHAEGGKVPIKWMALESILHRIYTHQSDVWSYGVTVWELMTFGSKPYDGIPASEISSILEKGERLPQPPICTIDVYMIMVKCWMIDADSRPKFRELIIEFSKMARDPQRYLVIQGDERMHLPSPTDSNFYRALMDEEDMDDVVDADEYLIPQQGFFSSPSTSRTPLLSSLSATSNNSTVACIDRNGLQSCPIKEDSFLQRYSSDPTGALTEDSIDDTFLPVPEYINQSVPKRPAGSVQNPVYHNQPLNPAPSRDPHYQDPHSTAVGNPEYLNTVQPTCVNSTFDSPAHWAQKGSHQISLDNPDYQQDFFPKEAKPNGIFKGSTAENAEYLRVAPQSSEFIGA
How it was run: as §1

[1] = ATP at Km, read-out: IC50 Del19/T790M/C797S (nM), Km ATP
[2] = IC50 Del19/T790M/C797S (nM), 100 μM ATP
[3] = ATP at Km, read-out: IC50 L858R/C797S (nM), Km ATP
[4] = IC50 L858R/C797S (nM), 100 μM ATP
[5] = ATP at Km, read-out: IC50 L858R/T790M/C797S (nM), Km ATP
[6] = IC50 L858R/T790M/C797S (nM), 100 μM ATP
[7] = ATP at Km, read-out: IC50 WT (nM), Km ATP
[8] = ATP at Km, read-out: IC50 Del19/C797S (nM), Km ATP
[9] = IC50 Del19/C797S (nM), 100 μM ATP

EGFR Del19/T790M/C797S, sequence (P00533 with tags, fused parts or gaps DEL746-750/T790M/C797S): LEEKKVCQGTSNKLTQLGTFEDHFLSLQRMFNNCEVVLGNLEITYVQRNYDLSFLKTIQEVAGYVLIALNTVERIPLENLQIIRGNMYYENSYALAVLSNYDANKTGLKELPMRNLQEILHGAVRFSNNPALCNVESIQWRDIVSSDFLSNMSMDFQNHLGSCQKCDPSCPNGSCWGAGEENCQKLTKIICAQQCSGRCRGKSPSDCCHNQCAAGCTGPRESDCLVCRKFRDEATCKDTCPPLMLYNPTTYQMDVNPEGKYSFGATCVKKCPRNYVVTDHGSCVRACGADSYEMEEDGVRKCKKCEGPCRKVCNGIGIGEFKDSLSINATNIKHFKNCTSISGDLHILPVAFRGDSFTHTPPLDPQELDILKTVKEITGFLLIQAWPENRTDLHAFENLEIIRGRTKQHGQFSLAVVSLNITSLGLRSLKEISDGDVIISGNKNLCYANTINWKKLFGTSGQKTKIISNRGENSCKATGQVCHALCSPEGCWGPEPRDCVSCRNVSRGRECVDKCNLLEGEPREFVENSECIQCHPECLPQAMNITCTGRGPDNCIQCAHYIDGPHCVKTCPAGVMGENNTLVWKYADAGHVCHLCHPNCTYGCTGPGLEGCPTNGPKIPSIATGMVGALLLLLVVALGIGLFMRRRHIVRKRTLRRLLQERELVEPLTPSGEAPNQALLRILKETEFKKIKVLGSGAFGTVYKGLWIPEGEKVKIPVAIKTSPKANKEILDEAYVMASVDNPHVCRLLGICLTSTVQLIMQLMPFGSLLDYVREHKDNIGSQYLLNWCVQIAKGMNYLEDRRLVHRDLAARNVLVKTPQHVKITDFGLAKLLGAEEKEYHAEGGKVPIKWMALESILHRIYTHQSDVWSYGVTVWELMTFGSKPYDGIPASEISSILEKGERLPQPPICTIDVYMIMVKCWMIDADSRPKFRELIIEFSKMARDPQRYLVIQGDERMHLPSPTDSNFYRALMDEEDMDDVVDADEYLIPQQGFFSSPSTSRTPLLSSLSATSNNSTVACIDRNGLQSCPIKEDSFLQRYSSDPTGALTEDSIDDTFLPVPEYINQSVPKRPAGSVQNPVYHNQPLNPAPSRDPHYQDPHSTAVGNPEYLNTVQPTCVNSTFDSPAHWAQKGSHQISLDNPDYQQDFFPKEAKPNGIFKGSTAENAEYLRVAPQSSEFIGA

Row | IC50 (EGFR Del19/T790M/C797S; [1]) [nM] | IC50 (EGFR Del19/T790M/C797S; [2]) [nM] | IC50 (EGFR L858R/C797S; [3]) [nM] | IC50 (EGFR L858R/C797S; [4]) [nM] | IC50 (EGFR L858R/T790M/C797S; [5]) [nM] | IC50 (EGFR L858R/T790M/C797S; [6]) [nM] | IC50 (EGFR wildtype (WT); [7]) [nM] | IC50 (EGFR wildtype (WT); IC50 WT (nM), 100 μM ATP) [nM] | IC50 (EGFR Del19/C797S; [8]) [nM] | IC50 (EGFR Del19/C797S; [9]) [nM] | SMILES
1 | 4.8 | 3.5 | 3.7 | 75 | 3.2 | 2.3 | 39.4 | > 10000 | 1.6 | 2.8 | O=S(=O)(C1CC1)n1cc(-c2nccc(Nc3cc(N[C@H]4CC[C@@H](CO)CC4)c(C#Cc4cnn(C(F)F)c4)cn3)n2)cn1 [Example 308, ((1s,4s)-4-((2-((2-(1-(Cyclopropylsulfonyl)-1H-pyrazol-4-yl)pyrimidin-4-yl)amino)-5-((1-(difluoromethyl)-1H-pyrazol-4-yl)ethynyl)pyridin-4-yl)amino)cyclohexyl)methanol]
2 | – | 1 | 1 | 43.8 | – | 1.1 | 24.3 | 7630 | 2.4 | 3.1 | CN(C)C[C@H]1CC[C@@H](Nc2cc(Nc3ccnc(-c4cnn(S(=O)(=O)C5CC5)c4)n3)ncc2C#Cc2cnn(CC3CC3)c2)CC1 [Example 309, 5-((1-(Cyclopropylmethyl)-1H-pyrazol-4-yl)ethynyl)-N^2-(2-(1-(cyclopropylsulfonyl)-1H-pyrazol-4-yl)pyrimidin-4-yl)-N^4-((1s,4s)-4-((dimethylamino)methyl)cyclohexyl)pyridine-2,4-diamine]
3 | – | 0.8 | 1.9 | 56.3 | – | 1.3 | 44 | 8840 | 2.9 | 4.2 | CN(C)C[C@H]1CC[C@@H](Nc2cc(Nc3ccnc(-c4cnn(S(=O)(=O)C5CC5)c4)n3)ncc2C#Cc2cnn(C(F)F)c2)CC1 [Example 310, N^2-(2-(1-(Cyclopropylsulfonyl)-1H-pyrazol-4-yl)pyrimidin-4-yl)-5-((1-(difluoromethyl)-1H-pyrazol-4-yl)ethynyl)-N^4-((1s,4s)-4-((dimethylamino)methyl)cyclohexyl)pyridine-2,4-diamine]
4 | – | 0.5 | 0.7 | 26 | – | 0.7 | 17.5 | 8550 | 1.6 | 1.8 | CN(C)C[C@H]1CC[C@@H](Nc2cc(Nc3ccnc(-c4cnn(S(=O)(=O)C5CC5)c4)n3)ncc2C#Cc2cnn(CC(F)F)c2)CC1 [Example 311, N^2-(2-(1-(Cyclopropylsulfonyl)-1H-pyrazol-4-yl)pyrimidin-4-yl)-5-((1-(2,2-difluoroethyl)-1H-pyrazol-4-yl)ethynyl)-N^4-((1s,4s)-4-((dimethylamino)methyl)cyclohexyl)pyridine-2,4-diamine]
5 | 0.3 | 0.3 | 1.1 | 12.2 | 0.1 | 0.4 | 9.6 | 6180 | 1.1 | 2.4 | CN(C)C[C@H]1CC[C@@H](Nc2cc(Nc3ccnc(-c4cnn(S(=O)(=O)C5CC5)c4)n3)ncc2C#Cc2cnn(C)c2)CC1 [Example 312, N^2-(2-(1-(Cyclopropylsulfonyl)-1H-pyrazol-4-yl)pyrimidin-4-yl)-N^4-((1s,4s)-4-((dimethylamino)methyl)cyclohexyl)-5-((1-methyl-1H-pyrazol-4-yl)ethynyl)pyridine-2,4-diamine]
6 | 0.3 | 0.4 | 0.9 | 9 | 0.1 | 0.3 | 10.7 | 4690 | 1.2 | 2 | CN(C)C[C@H]1CC[C@@H](Nc2cc(Nc3ccnc(-c4cnn(S(=O)(=O)C5CC5)c4)n3)ncc2C#Cc2cnn(C3CC3)c2)CC1 [Example 313, 5-((1-Cyclopropyl-1H-pyrazol-4-yl)ethynyl)-N^2-(2-(1-(cyclopropylsulfonyl)-1H-pyrazol-4-yl)pyrimidin-4-yl)-N^4-((1s,4s)-4-((dimethylamino)methyl)cyclohexyl)pyridine-2,4-diamine]
7 | 0.7 | 0.9 | 3.4 | 78.4 | 0.2 | 0.2 | 52.6 | > 10000 | 5.4 | 9.9 | CN(C)C[C@H]1CC[C@@H](Nc2cc(Nc3ccnc(-c4cnn(S(=O)(=O)C5CC5)c4)n3)ncc2C#Cc2cnn(C(F)(F)F)c2)CC1 [Example 314, N^2-(2-(1-(Cyclopropylsulfonyl)-1H-pyrazol-4-yl)pyrimidin-4-yl)-N^4-((1s,4s)-4-((dimethylamino)methyl)cyclohexyl)-5-((1-(trifluoromethyl)-1H-pyrazol-4-yl)ethynyl)pyridine-2,4-diamine]
8 | – | 4.7 | – | 72.8 | – | 5.8 | – | > 10000 | – | 56.7 | CN(C)CC1(O)CCN(c2cc(Nc3ccnc(-c4cnn(S(=O)(=O)C5CC5)c4)n3)ncc2C#Cc2cnn(C3CC3)c2)CC1 [Example 316, 1-(5-((1-Cyclopropyl-1H-pyrazol-4-yl)ethynyl)-2-((2-(1-(cyclopropylsulfonyl)-1H-pyrazol-4-yl)pyrimidin-4-yl)amino)pyridin-4-yl)-4-((dimethylamino)methyl)piperidin-4-ol]

The remaining lines, values behind:

Row | SMILES | IC50 (EGFR Del19/T790M/C797S; [1]) [nM] | IC50 (EGFR Del19/T790M/C797S; [2]) [nM] | IC50 (EGFR L858R/C797S; [3]) [nM] | IC50 (EGFR L858R/C797S; [4]) [nM] | IC50 (EGFR L858R/T790M/C797S; [5]) [nM] | IC50 (EGFR L858R/T790M/C797S; [6]) [nM] | IC50 (EGFR wildtype (WT); [7]) [nM] | IC50 (EGFR wildtype (WT); IC50 WT (nM), 100 μM ATP) [nM] | IC50 (EGFR Del19/C797S; [8]) [nM] | IC50 (EGFR Del19/C797S; [9]) [nM]
9 | CN(C)CC1(O)CCN(c2cc(Nc3ccnc(-c4cnn(S(=O)(=O)C5CC5)c4)n3)ncc2C#Cc2cnn(C)c2)CC1 [Example 315, 1-(2-((2-(1-(Cyclopropylsulfonyl)-1H-pyrazol-4-yl)pyrimidin-4-yl)amino)-5-((1-methyl-1H-pyrazol-4-yl)ethynyl)pyridin-4-yl)-4-((dimethylamino)methyl)piperidin-4-ol] | – | 3.7 | – | 78.6 | – | 6.8 | – | > 10000 | – | 52.2
10 | CN(C)CC1(O)CCN(c2cc(Nc3ccnc(-c4cnn(S(=O)(=O)C5CC5)c4)n3)ncc2C#Cc2cnn(C(F)(F)F)c2)CC1 [Example 317, 1-(2-((2-(1-(Cyclopropylsulfonyl)-1H-pyrazol-4-yl)pyrimidin-4-yl)amino)-5-((1-(trifluoromethyl)-1H-pyrazol-4-yl)ethynyl)pyridin-4-yl)-4-((dimethylamino)methyl)piperidin-4-ol] | – | 16.2 | – | 334 | – | 35.1 | – | > 10000 | – | 245
11 | CN1CCC2(CC1)CCN(c1cc(Nc3ccnc(-c4cnn(S(=O)(=O)C5CC5)c4)n3)ncc1C#Cc1cnn(C)c1)CC2 [Example 318, 2-(1-(Cyclopropylsulfonyl)-1H-pyrazol-4-yl)-N-(5-((1-methyl-1H-pyrazol-4-yl)ethynyl)-4-(9-methyl-3,9-diazaspiro[5.5]undecan-3-yl)pyridin-2-yl)pyrimidin-4-amine] | – | 0.3 | – | 18.4 | – | 0.4 | – | 5990 | – | 4.2
12 | CN1CCC2(CC1)CCN(c1cc(Nc3ccnc(-c4cnn(S(=O)(=O)C5CC5)c4)n3)ncc1C#Cc1cnn(C3CC3)c1)CC2 [Example 319, N-(5-((1-Cyclopropyl-1H-pyrazol-4-yl)ethynyl)-4-(9-methyl-3,9-diazaspiro[5.5]undecan-3-yl)pyridin-2-yl)-2-(1-(cyclopropylsulfonyl)-1H-pyrazol-4-yl)pyrimidin-4-amine] | – | 0.3 | – | 17.1 | – | 0.3 | – | 4540 | – | 3.2
13 | CN1CCC2(CC1)CCN(c1cc(Nc3ccnc(-c4cnn(S(=O)(=O)C5CC5)c4)n3)ncc1C#Cc1cnn(CC3CC3)c1)CC2 [Example 320, N-(5-((1-(Cyclopropylmethyl)-1H-pyrazol-4-yl)ethynyl)-4-(9-methyl-3,9-diazaspiro[5.5]undecan-3-yl)pyridin-2-yl)-2-(1-(cyclopropylsulfonyl)-1H-pyrazol-4-yl)pyrimidin-4-amine] | – | 1 | – | 44 | – | 0.8 | – | 5670 | – | 10.5
14 | CN1CCC2(CC1)CCN(c1cc(Nc3ccnc(-c4cnn(S(=O)(=O)C5CC5)c4)n3)ncc1C#Cc1cnn(C(F)F)c1)CC2 [Example 321, 2-(1-(Cyclopropylsulfonyl)-1H-pyrazol-4-yl)-N-(5-((1-(difluoromethyl)-1H-pyrazol-4-yl)ethynyl)-4-(9-methyl-3,9-diazaspiro[5.5]undecan-3-yl)pyridin-2-yl)pyrimidin-4-amine] | – | 0.7 | – | 45.2 | – | 1.2 | – | 5850 | – | 8
15 | CN1CCC2(CC1)CCN(c1cc(Nc3ccnc(-c4cnn(S(=O)(=O)C5CC5)c4)n3)ncc1C#Cc1cnn(CC(F)F)c1)CC2 [Example 322, 2-(1-(Cyclopropylsulfonyl)-1H-pyrazol-4-yl)-N-(5-((1-(2,2-difluoroethyl)-1H-pyrazol-4-yl)ethynyl)-4-(9-methyl-3,9-diazaspiro[5.5]undecan-3-yl)pyridin-2-yl)pyrimidin-4-amine] | – | 0.5 | – | 18 | – | 0.4 | – | 4540 | – | 6
